Bounds are passed on as bounds.

The nature of one data set: in vivo. The following applies: female, CD-1, mouse. On the procedure: (§1) A. Toxicity: Acute toxicities were determined using CD-1 female mice (supplied by Charles River Laboratories, Wilmington, Mass.) having a bodyweight of 18-25 g, and about 6 weeks of age. Compounds 1 and 2 at doses ranging from 1 to 70 mg/kg (formulated in 20% propylene glycol/water for a total volume of 10 μL/g of weight) were administered intraperitoneal (i.p.) and intravenous (i.v.) to groups of 5 mice (5 mice per concentration, per mode of administration). Two groups of 3 mice were injected with vehicle only. Mice were observed immediately after injection, within 4 hours and once a day for the subsequent days. Acute toxicity studies of Compound 1 in mice indicated no observable effect and high dose tolerability: 70 mg/kg intraperitoneal and 50 mg/kg intravenous (an MTD of 250 mg/kg was also determined by oral administration). […] In vitro Haemolytic activity results are also shown in Table 7, along with the in vivo toxicity and efficacy of Compound 1.

A further data set in a line: in vitro. It counts as cell-based. The following applies: sheep; concentration to achieve 50% hemolysis of SRBC; read-out: In vitro Hemolytic activity (EC50). The procedure: as §1
For data set [1], the system named is Staphylococcus aureus (Smith strain, ATCC™ 13709). The data set can be described thus: In vivo efficacy, acute lethal S. aureus infection in mice. Particulars: ICR mice; i.p. one hour post infection; lowest dose tested; 100% protection. The procedure: B. Efficacy: In vivo efficacy studies were performed on ICR mice (supplied by Charles River Laboratories, Wilmington, Mass.) having a bodyweight of 20±2 g. Mice (38) were inoculated i.p. with an LD90-100 dose (1×10^6 CFU/mouse) of Staphylococcus aureus (Smith strain, ATCC™ 13709) suspended in 0.5 mL of BHI containing 5% mucin. Compound 1 at doses 20, 30, 40, 50, 60 and 70 mg/kg (formulated in 20% propylene glycol/water for a total volume of 10 μL/g of weigth) was administered i.p. one hour post infection (5 mice for each concentration). Another group of 5 mice was treated i.v. with a 10 mg/kg dose of Vancomycin. A last group of 3 mice was administered vehicle only. Mortality was recorded for 7 days.

Usually EC50 stands for the concentration that produces a half-maximal response. As to `CC(=CC=CC=CC=CC=CC(C)C(OC1OC(C(=O)O)C(O)C(O)C1O)C(C)=CC(C)CCCC=CC(C)CC=CCCCN(C)C(=N)N)C(=O)NC1=C(O)CCC1=O` (stereo not shown) [Compound 1, 3,4,5-trihydroxy-6-[1-[11-(2-hydroxy-5-oxocyclopent-1-enylcarbamoyl)-1-methyldodeca-2,4,6,8,10-pentaenyl]-2,4,10-trimethyl-16-(N-methyl-guanidino)-hexadeca-2,8,12-trienyloxy]-tetrahydropyran-2-carboxylic acid], the MTD was 70 mg/kg in the data set “in vivo” (ip) and 250 mg/kg in the data set “in vivo” (po). In “in vitro”, the EC50 was above 128 µg/mL. Moreover, the “In vivo efficacy: S. aureus (Smith), protective dose” value in data set [1] is reported as “≦20 mg/kg”.

For the origin of these results see patent US20050215490A1, “Polyene polyketides and methods of treating bacterial infections” (Ecopia BioSciences, Inc., priority 2003, published 2005).
